Experimental data published in patent US20260042831A1, “METHODS OF TREATING SARCOIDOSIS WITH A TNF-A ANTIBODY AND ASSOCIATED COMPOSITIONS AND METHODS” (XENTRIA, INC., priority 2022, published 2026).
“Also recorded” adds a separate entry of the source. Where two headings read alike, the source gives them in different places.

Columns and labels:
[1] = tested on: chronic refractory pulmonary sarcoidosis; conditions: low- and high-dose IV infusion, at 24 weeks; cited from earlier work
[2] = tested on: normal human tissues and human sarcoidosis tissue; experiment: Tissue cross-reactivity study (GLP, immunohistochemistry on cryosections); format: binding; conditions: for Tissues Showing Evidence of Staining: Sp2/0-Ag14 cells: negative control; for Tissues Showing Evidence of Staining: T3-33 (TNFα-expressing) cells: positive control, 5 and 20 μg/mL
Description: Human tonsil, human lung and lymph node with sarcoidosis, and human small intestine with Crohn's disease were also included in the study.
Samples from 1 to 3 separate donors from each of the listed tissues were evaluated. Fresh, unfixed tissue samples were placed into molds, filled with Tissue-Tek® OCT Compound, and frozen at −85 to −70° C. until sectioning. Sections were cut at approximately 5 μm and fixed in acetone for 10 minutes at room temperature. Human blood smears were stored at −85° to −70° C. until fixation and staining. XTMAB16 (primary antibody) was incubated overnight with biotinylated donkey anti-human IgG secondary labeled antibody. XTMAB16 and the control article, hIgG1, were tested at concentration of 5 and 20 μg/mL. Immunopathology was assessed by light microscopy.
The following human tissues were assessed in this cross-reactivity study: • 1. Positive Control: • Cryosections of T3-33 (TNFα-expressing) cells • 2. Negative Control: • Cryosections of Sp2/0-Ag14 cells • 3. Ancillary Controls: • Cryosections of human tonsil (mononuclear cells; 2 donors) • Cryosections of human small intestine with Crohn's disease (mononuclear cells; 1 donor) • Cryosections of human lung with sarcoidosis (mononuclear cells; 1 donor) • Cryosections of human lymph node with sarcoidosis (mononuclear cells; 1 donor)

[3] = tested on: transgenic TC (TgTC) mice (rheumatoid arthritis model); experiment: In vivo primary pharmacology: arthritis scores in TgTC mice; set-up: species or system mouse; conditions: for arthritis scores compared to vehicle control: Day 29 and Day 43 (p<0.01)
[4] = tested on: TNFα, IL-1β, IFNγ release; experiment: In vitro granuloma model of sarcoidosis: supernatant cytokine release (ELISA); conditions: 30 minutes pre-treatment, 7 days following PPD
Description: (§1) PMBCs were exposed to either uncoated bead (UNC) or Mycobacterium tuberculosis (M. tb) antigen PPD-coated beads for 7 days. […] Following imaging, supernatant samples were collected and quantified for extracellular cytokine release using an enzyme-linked immunosorbent assay.

[5] = tested on: PBMCs from subjects with active pulmonary sarcoidosis; experiment: In vitro granuloma model of sarcoidosis: granuloma formation (MIPAR area fraction)
Description: as §1

[6] = higher staining concentration (20 μg/mL), rare to occasional cells
[7] = lower staining concentration (5 μg/mL)

Infliximab: a monoclonal antibody (mAb) targeting TNFα that is being used off-label to treat sarcoidosis
increase in predicted forced vital capacity [1]: 2.5%

XTMAB-16: a chimeric (human/murine) IgG1 mAb directed against TNFα
Tissues Showing Evidence of Staining: Smooth myocytes ([2]; adrenal, bladder, cerebellum, cerebral cortex, cervix, kidney, large intestine, liver, lymph node, lung, striated muscle, nerve, ovary, pancreas, placenta, prostate, parathyroid, skin, small intestine, spleen, stomach, testis, thymus, tonsil, uterus): Cytoplasm of vascular and/or intrinsic smooth
Tissues Showing Evidence of Staining: mononuclear cells in human tonsil, small intestine with Crohn's disease, lung with sarcoidosis, lymph node with sarcoidosis ([2]; ancillary controls): Ancillary control tissues (+)
majority of non-mononuclear cell binding ([2]; binding observed at only the higher concentration in most tissues): low affinity
Tissues Showing Evidence of Staining: Epithelial cells ([2]; esophagus, Fallopian tube, kidney, lung (bronchioles), pancreas (acini), pituitary, salivary gland, skin (sweat glands), stomach (mucosa)): Cytoplasm only of epithelial cells stained
mononuclear cell staining intensity in normal human tissues ([2]; higher concentration): weak to strong or weak to moderate
staining of membrane and cytoplasm of mononuclear cells in human tonsil [2, 6]: weakly to strongly stained
staining of mononuclear cells in small intestine with Crohn's disease, lung with sarcoidosis, lymph node with sarcoidosis [2, 6]: weakly to strongly stained
Tissues Showing Evidence of Staining: Glomerular tuft cells ([2]; kidney): Cytoplasm of renal glomerular tuft cells
mononuclear cell staining in normal human tissues ([2]; lower concentration, versus higher concentration): comparable, reduced, or no staining
staining of mononuclear cells in human tonsil [2, 7]: weak to strong and rare staining
staining of mononuclear cells in small intestine with Crohn's disease, lung with sarcoidosis, lymph node with sarcoidosis [2, 7]: weak to moderate and rare staining
Tissues Showing Evidence of Staining: Endothelial cells ([2]; lymph node): Cytoplasm of endothelial cells in the lymph node.
Tissues Showing Evidence of Staining: Myoepithelial cells ([2]; mammary gland): Membrane and cytoplasm of myoepithelial cells
Tissues Showing Evidence of Staining: Sp2/0-Ag14 cells [2]: Negative control cryosections (−)
Tissues Showing Evidence of Staining: Sp2/0-Ag14 cells ([2]; listed as XTMAB16): did not react specifically
Tissues Showing Evidence of Staining: Mononuclear cells ([2]; normal human bladder, cervix, esophagus, large intestine, liver (Kupffer cells), lymph node, lung, pancreas, placenta (Hofbauer cells), parathyroid, salivary gland, skin, small intestine, spleen, stomach, thyroid, thymus, tonsil, uterus): stained the membrane and cytoplasm; also recorded: Membrane and cytoplasm of resident, migrating,
Tissues Showing Evidence of Staining: T3-33 (TNFα-expressing) cells [2]: Positive control cells (+)
Tissues Showing Evidence of Staining: T3-33 (TNFα-expressing) cells ([2]; listed as XTMAB16): weak to strong membrane and cytoplasmic staining
arthritis scores compared to vehicle control ([3]; 20 mg/kg/dose on Days 1, 15, 29): statistically significant improvement
arthritis scores compared to vehicle control ([3]; 40 mg/kg/dose on Days 1, 15, 29): statistically significant improvement
arthritis scores, 20 versus 40 mg/kg/dose ([3]; t test: p>0.05): no significant differences
granuloma cytokine release [4]: significant dose-response effect
IC50 for decrease in granuloma area fraction [5]: 5.197 µg/mL
granuloma formation (area fraction) ([5]; 30 minutes pre-treatment (XTMAB-16 1 to 40 μg/mL; prednisone 1 to 10 μM), 7 days following PPD): significantly attenuated; also recorded: significant dose-response effect
IC50 for decrease in granuloma area fraction ([5]; MIPAR area fraction, all subject samples, 7 days after PPD-coated beads): 5.2 µg/mL
